Source: patent US20130266636A1, “METHODS FOR BLOCKING CELL PROLIFERATION AND TREATING DISEASES AND CONDITIONS RESPONSIVE TO CELL GROWTH INHIBITION” (THE REGENTS OF THE UNIVERSITY OF CALIFORNIA, priority 2010, published 2013)

Key:
Plk1 = Plk1 localization, confocal microscopy and CenpF immunoprecipitates; type: cell-based, human
Excerpt: FIG. 46. CRAF regulates Plk1 activity and localization. FIG. 46(a) Plk1 kinase activity assay performed in WT and CRAF−/− MEFs. Error bars represent s.d. (n=3); * two tailed p value=0.029 using Mann Whitney U test. FIG. 46(b) Immunoblot analysis of XPA-1 cells asynchronous or arrested in mitosis by treatment with KG5, nocodazole or paclitaxel (referred to as Ncdzl and Ptxl respectively). pPlk1 refers to phospho-T210 Plk1 and pHH3 refers to phospho-Histone H3. Data are representative of three independent experiments. FIG. 46(c) Plk1 kinase activity assay performed in HCT-116 cells treated with nocodazole or nocodazole and KG5. Error bars represent s.d. (n=2); * two tailed p value=0.002 using Mann Whitney U test. FIG. 46(d) Immunoblot analysis of CenpF immunoprecipitates from HCT-116 cells untreated or treated with KG5. Data are representative of three independent experiments. FIG. 46(e) Confocal microscopy images of XPA-1 cell at prophase (upper panel), pro-metaphase control untreated (middle panel) or treated with KG5 (lower panel). Cells were stained for phospho-T210 Plk1 (in green), a tubulin (in red) and DNA (TOPRO-3™ in blue). Thick white arrows indicate localization of pPlk1 at the mitotic spindle pole and narrow white arrows indicate localization of pPlk1 at the kinetochores. Scale bar, 10 p.m. […]

MALME-3M = assay: NCI-60 panel growth inhibition; type: cell-based; settings: Homo sapiens, Melanoma, mutated RAS No, mutated BRAF Yes
Excerpt: (§1) Table 1 summarizes KG5's effect in 60 NCI cancer cell lines: the NCI-60 panel showing the half maximal growth inhibitory concentration of KG5 and the RAS and BRAF status in 60 human cancer cell lines.

T-47D = assay: NCI-60 panel growth inhibition; type: cell-based; settings: Homo sapiens, T47D; Breast Cancer; mutated RAS Yes; mutated BRAF No
Excerpt: as §1

K-562 = assay: NCI-60 panel growth inhibition; type: cell-based; settings: Homo sapiens, K562; Leukemia; mutated RAS No; mutated BRAF No
Excerpt: as §1

UACC-257 = assay: NCI-60 panel growth inhibition; type: cell-based; settings: Homo sapiens, Melanoma, mutated RAS No, mutated BRAF Yes
Excerpt: as §1

HT29 = assay: NCI-60 panel growth inhibition; type: cell-based; settings: Homo sapiens, HT-29; Colon Cancer; mutated RAS No; mutated BRAF Yes
Excerpt: as §1

DU-145 = assay: NCI-60 panel growth inhibition; type: cell-based; settings: Homo sapiens, Prostate Cancer, mutated RAS No, mutated BRAF No
Excerpt: as §1

RXF 393 = assay: NCI-60 panel growth inhibition; type: cell-based; settings: Homo sapiens, Renal Cancer, mutated RAS No, mutated BRAF No
Excerpt: as §1

M14 = assay: NCI-60 panel growth inhibition; type: cell-based; settings: Homo sapiens, Melanoma, mutated RAS No, mutated BRAF Yes
Excerpt: as §1

SK-MEL-2 = assay: NCI-60 panel growth inhibition; type: cell-based; settings: Homo sapiens, Melanoma, mutated RAS Yes, mutated BRAF No
Excerpt: as §1

NCI/ADR-RES = assay: NCI-60 panel growth inhibition; type: cell-based; settings: Homo sapiens, Ovarian Cancer, mutated RAS No, mutated BRAF No
Excerpt: as §1

MDA-MB-435 = assay: NCI-60 panel growth inhibition; type: cell-based; settings: Homo sapiens, Melanoma, mutated RAS No, mutated BRAF Yes
Excerpt: as §1

TK-10 = assay: NCI-60 panel growth inhibition; type: cell-based; settings: Homo sapiens, Renal Cancer, mutated RAS No, mutated BRAF No
Excerpt: as §1

HOP-62 = assay: NCI-60 panel growth inhibition; type: cell-based; settings: Homo sapiens, NSC Lung Cancer, mutated RAS Yes, mutated BRAF No
Excerpt: as §1

UACC-62 = assay: NCI-60 panel growth inhibition; type: cell-based; settings: Homo sapiens, Melanoma, mutated RAS No, mutated BRAF Yes
Excerpt: as §1

[1] = tested on: human colon (HCT-116), pancreatic (Mia-Paca2, FG, XPA-1, BXPC3), breast (MDA-MB-231) and brain (U251) cancer cell lines; assay: Cell cycle analysis of proliferating tumor cell lines treated with KG5; type: cell-based; settings: all proliferating tumor cell lines tested
Procedure: FIG. 40. Allosteric inhibition of RAF arrests proliferating cells at pro-metaphase. FIG. 40(a) Cell cycle analysis and G2/M quantification of human colon (HCT-116), pancreatic (Mia-Paca2, FG, XPA-1, BXPC3), breast (MDA-MB-231) and brain (U251) cancer cell lines untreated or treated for 20 hours with 5 μM of KG5. Error bars represent s.d. (n=4); * two tailed p value=0.0023 using Mann Whitney U test. FIG. 40(b) HCT-116 cells were cultured under low (30%) or high (90%) confluency and treated with 1 μM KG5 for 20 hours. […] Error bars represent s.d. (n=3); * two tailed p value=0.0021 using Mann Whitney U test. FIG. 40(c) HCT-116 and XPA-1 cells were treated for 20 hours with 1 μM of KG5, stained for α-tubulin/DNA, and cells arrested in pro-metaphase were quantified by confocal microscopy. Error bars represent s.d. (n=3); * two tailed p value=0.0008 using Mann Whitney U test. Lysates from the same cells were also analyzed by immunoblotting for the expression of the mitotic marker phospho-Histone H3 (inset). Data are representative of three independent experiments.
Cell cycle analysis was performed by flow cytometry following propidium iodide staining. Briefly, cells were harvested, fixed with ice cold methanol, treated for 45 min with 10 μg/ml of RNase and resuspended in PBS containing 10 μg/ml of PI, and analyzed by flow cytometry. […]

`CSc1nc(N)cc(Oc2ccc(-c3nnc(Nc4cccc(C(F)(F)F)c4)[nH]3)cc2)n1` [KG5] was tested, and the “Plk1 localization to the spindle pole” value (Plk1) was “no effect on Plk1 localization to the spindle pole”, the “accumulation of active Plk1 at the kinetochores” value (Plk1) was “prevented the subsequent accumulation of active Plk1 at the kinetochores” and the GI50 (MALME-3M) was 0.316 µM. It also gave a GI50 (T-47D) of 0.347 µM, a GI50 (K-562) of 0.513 µM and a GI50 (UACC-257) of 0.407 µM. The GI50 (HT29) was 0.363 µM, the GI50 (DU-145) was 0.457 µM and the GI50 (RXF 393) was 0.166 µM. The GI50 (M14) was 0.347 µM, the GI50 (SK-MEL-2) was 0.589 µM and the GI50 (NCI/ADR-RES) was 0.437 µM. For the same compound, the GI50 (MDA-MB-435) was 0.195 µM, the GI50 (TK-10) was 0.692 µM and the GI50 (HOP-62) was 0.589 µM. For the same compound, the GI50 (UACC-62) was 0.501 µM, the “mitotic arrest and cell death” value [1] was “mitotic arrest at pro-metaphase followed by cell death” and the “phospho-S338 CRAF” value [1] was “inhibition of phospho-S338 CRAF”.
